Data: US10487313B2, “Efficient induction of definitive endoderm from pluripotent stem cells” (Novo Nordisk A/S, priority 2011, dated 2019)

Test system: chIPS4 cells
Assay: Further differentiation of DE towards pancreatic endoderm, PDX1 by ICC and real-time PCR
Type: cell-based, human
Settings: seven days after induction of PE differentiation
Protocol: When cells were further differentiated to PE, the DE protocol was applied in T75 cell culture flasks and reseeded after 4 d of DE culture at a density of 200 K in DE media. 1 d later, cells were washed once before addition of PE media (RPMI1640+12% KOSR+64 ng/ml bFGF) according to published protocol (Amen et al 2010). RNA samples were collected after 24 h pre-treatment (D1), after 1 day of AA treatment (D2) and after 1-2 d of AA+B27 treatment (D3-4). Total RNA was extracted with the Rneasy Plus Mini kit (Qiagen) and quantitative real-time PCR was performed using the StepOnePLus system (Applied Biosystems). Cells were washed in PBS+/+ and fixed in 4% formaldehyde for 30 min (10% formaline, VWR). The cells were then washed again three times in PBS and left in PBS (4° C.) until staining. Fixed cells were washed with PBS once, then permeabilized with 0.5% Triton X-100 in PBS for 6 min, washed in PBS and blocked with TNB buffer (0.1 M Tris-HCL pH 7.5, 0.15 M NaCl, 0.5% Blocking Reagent (Perkin Elmer)) for 30 min. […] Seven days after the induction of PE differentiation the cells were fixed and analyzed by ICC using a PDX1 specific antibody. […] In parallel, mRNA was collected from the cells and the PDX1 expression was analyzed by real-time PCR. […]

SMILES: Cc1c[nH]c(-c2cnc(NCCNc3ccc(C#N)cn3)nc2-c2ccc(Cl)cc2Cl)n1 [CHIR, CHIR99021]
- PDX1 mRNA expression by real-time PCR: clear expression
- PDX1 staining by ICC: evident
